Assays:
[1] = biological target: T1, SMARCA2-HiBiT HeLa cells (protein which is expressed from the SMARCA2 gene) (Homo sapiens, UniProt P51531); test: SMARCA2 degradation assay (HiBiT-fusion HeLa cell line, 24 h, luminescence); type: cell-based
T1 construct: protein which is expressed from the SMARCA2 and SMARCA4 genes; host or cells: HeLa (SMARCA2-HiBiT engineered line)
How it was run: (§1)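 SMARCA2- or SMARCA4-HiBiT HeLa cells seeded overnight at 37° C, then given compound as a 10-point dilution (typically 10 μM to 300 pM) for 24 h at 37° C. Protein level read by HiBiT lytic detection luminescence; DC50 from dose-response curves; degradation also scored at 1 μM.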

[2] = biological target: T2, SMARCA4-HiBiT HeLa cells (protein which is expressed from the SMARCA4 gene) (Homo sapiens, UniProt P51532); test: SMARCA4 degradation assay (HiBiT-fusion HeLa cell line, 24 h, luminescence); type: cell-based
T2 construct: protein which is expressed from the SMARCA2 and SMARCA4 genes; host or cells: HeLa (SMARCA4-HiBiT engineered line)
How it was run: as §1

T1 sequence (P51531 whole entry, the tested form may be a part): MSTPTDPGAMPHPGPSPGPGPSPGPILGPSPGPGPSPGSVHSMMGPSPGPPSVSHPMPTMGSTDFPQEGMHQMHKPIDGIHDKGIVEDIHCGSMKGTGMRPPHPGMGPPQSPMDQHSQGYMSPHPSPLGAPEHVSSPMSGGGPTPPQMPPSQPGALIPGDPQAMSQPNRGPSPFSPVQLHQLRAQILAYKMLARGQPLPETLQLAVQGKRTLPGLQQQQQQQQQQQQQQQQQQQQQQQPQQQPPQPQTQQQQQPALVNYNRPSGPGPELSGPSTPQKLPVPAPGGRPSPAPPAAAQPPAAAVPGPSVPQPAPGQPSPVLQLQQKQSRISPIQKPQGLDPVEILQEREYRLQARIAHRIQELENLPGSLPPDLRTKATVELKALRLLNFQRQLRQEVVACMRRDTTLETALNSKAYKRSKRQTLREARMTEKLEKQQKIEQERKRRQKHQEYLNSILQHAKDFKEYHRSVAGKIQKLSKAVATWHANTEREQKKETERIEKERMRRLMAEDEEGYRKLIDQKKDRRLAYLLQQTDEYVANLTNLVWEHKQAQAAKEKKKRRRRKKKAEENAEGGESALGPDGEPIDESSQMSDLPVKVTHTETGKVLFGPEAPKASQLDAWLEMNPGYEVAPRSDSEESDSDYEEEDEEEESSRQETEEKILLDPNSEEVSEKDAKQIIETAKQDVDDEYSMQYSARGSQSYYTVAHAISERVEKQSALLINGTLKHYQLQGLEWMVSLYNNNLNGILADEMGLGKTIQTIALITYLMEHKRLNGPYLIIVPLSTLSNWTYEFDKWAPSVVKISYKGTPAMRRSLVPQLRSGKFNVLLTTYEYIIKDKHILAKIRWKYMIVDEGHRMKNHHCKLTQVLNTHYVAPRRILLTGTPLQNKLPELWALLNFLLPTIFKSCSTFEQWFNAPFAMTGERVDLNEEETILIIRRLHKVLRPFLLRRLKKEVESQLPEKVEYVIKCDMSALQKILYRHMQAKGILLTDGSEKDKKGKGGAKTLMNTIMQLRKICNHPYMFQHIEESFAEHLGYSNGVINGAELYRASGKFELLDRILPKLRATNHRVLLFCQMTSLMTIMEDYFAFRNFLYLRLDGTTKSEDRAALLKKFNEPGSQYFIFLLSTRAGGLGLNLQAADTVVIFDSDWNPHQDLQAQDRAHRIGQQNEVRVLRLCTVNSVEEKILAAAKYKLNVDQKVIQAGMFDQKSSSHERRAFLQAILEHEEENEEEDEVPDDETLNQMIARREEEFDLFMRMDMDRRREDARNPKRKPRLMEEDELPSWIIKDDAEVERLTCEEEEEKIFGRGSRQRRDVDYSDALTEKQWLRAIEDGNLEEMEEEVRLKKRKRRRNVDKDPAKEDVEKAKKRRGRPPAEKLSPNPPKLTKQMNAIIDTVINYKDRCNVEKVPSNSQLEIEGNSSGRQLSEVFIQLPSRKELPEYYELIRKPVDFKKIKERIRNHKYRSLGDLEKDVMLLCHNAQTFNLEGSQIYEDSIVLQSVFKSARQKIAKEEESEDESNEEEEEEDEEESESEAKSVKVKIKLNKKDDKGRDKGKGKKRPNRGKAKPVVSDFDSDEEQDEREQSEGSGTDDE
T2 sequence (P51532 whole entry, the tested form may be a part): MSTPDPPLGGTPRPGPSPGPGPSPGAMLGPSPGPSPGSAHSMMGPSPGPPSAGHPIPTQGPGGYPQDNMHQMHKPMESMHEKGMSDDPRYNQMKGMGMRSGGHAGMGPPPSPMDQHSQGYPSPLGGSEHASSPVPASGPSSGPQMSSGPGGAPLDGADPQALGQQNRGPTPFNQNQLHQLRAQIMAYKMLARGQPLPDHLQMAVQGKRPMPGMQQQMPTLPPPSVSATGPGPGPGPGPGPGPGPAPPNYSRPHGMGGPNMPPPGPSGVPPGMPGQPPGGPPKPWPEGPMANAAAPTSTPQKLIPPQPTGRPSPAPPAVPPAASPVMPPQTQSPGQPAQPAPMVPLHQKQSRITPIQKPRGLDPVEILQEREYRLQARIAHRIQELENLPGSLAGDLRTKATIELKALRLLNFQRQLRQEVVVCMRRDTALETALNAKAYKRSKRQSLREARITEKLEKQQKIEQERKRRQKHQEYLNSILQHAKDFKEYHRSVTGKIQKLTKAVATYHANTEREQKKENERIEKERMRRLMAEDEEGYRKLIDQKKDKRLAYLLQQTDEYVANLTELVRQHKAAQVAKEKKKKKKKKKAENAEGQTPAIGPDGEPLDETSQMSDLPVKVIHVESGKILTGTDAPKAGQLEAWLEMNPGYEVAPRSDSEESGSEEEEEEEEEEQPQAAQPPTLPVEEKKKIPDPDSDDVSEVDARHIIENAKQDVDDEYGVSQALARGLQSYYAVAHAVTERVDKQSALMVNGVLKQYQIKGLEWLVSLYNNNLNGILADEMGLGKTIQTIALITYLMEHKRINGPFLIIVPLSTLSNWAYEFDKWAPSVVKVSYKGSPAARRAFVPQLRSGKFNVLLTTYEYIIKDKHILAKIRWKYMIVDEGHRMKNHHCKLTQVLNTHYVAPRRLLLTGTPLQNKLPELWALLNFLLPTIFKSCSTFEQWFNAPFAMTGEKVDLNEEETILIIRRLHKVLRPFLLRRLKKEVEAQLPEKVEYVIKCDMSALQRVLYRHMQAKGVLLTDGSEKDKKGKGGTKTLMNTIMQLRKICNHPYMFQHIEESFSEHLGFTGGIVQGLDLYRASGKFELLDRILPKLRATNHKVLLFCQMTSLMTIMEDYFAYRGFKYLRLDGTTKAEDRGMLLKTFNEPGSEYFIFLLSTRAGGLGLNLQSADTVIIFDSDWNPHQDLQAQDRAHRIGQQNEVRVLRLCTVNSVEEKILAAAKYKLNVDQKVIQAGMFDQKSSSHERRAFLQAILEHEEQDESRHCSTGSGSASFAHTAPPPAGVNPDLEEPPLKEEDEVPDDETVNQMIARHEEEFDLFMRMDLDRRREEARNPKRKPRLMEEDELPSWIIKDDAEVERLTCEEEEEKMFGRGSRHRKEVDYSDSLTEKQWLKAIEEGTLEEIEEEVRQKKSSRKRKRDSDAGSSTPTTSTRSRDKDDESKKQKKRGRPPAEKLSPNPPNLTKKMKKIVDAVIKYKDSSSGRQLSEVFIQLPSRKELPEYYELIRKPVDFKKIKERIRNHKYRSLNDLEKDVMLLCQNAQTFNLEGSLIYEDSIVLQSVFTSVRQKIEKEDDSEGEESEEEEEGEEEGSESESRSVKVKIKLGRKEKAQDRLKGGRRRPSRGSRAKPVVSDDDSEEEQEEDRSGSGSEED

Row | DC50 [1] [nM] | SMARCA2 % Degradation @ 1 μM [1] | DC50 [2] [nM] | inhibition at 1 µM [2] [%] | SMILES
1 | < 50 | +++ (+++=>70%) | < 50 | 30 to 70 | C[C@@H]1CCN(c2cc(-c3ccccc3O)nnc2N)CCN1c1ccnc(C#CCN(C)C)c1 [Compound P-427, 0-{5-[(R)-4-{2-[3-(dimethylamino)-1-propynyl]-4-pyridyl}-5-methyl-1,4-diazepan-1-yl]-6-amino-3-pyridazinyl}phenol]
2 | 50 to 500 | +++ (+++=>70%) | 50 to 500 | > 70 | C[C@@H]1CCN(c2cc(-c3ccccc3O)nnc2N)CCN1c1ccnc(C#CCn2ccnc2)c1 [Compound P-428, 0-{5-[(R)-4-{2-[3-(1-imidazolyl)-1-propynyl]-4-pyridyl}-5-methyl-1,4-diazepan-1-yl]-6-amino-3-pyridazinyl}phenol]
3 | 50 to 500 | +++ (+++=>70%) | 50 to 500 | 30 to 70 | C[C@@H]1CCN(c2cc(-c3ccccc3O)nnc2N)CCN1c1ccc(C#N)c(C#CCn2ccnc2)n1 [Compound P-429, 6-{(R)-4-[3-amino-6-(o-hydroxyphenyl)-4-pyridazinyl]-7-methyl-1,4-diazepan-1-y1}-2-[3-(1-imidazolyl)-1-propynyl]nicotinonitrile]
4 | 500 to 5000 | – | > 5000 | – | CC(C)(C)OC(=O)NCC#Cc1cccc(N2CCCN(c3cc(-c4ccccc4O)nnc3N)CC2)n1 [Compound P-432, 3-(6-{4-[3-amino-6-(o-hydroxyphenyl)-4-pyridaziny1]-1,4-diazepan-1-yl}-2-pyridyl)-2-propynyl 2-methyl-2-propanecarbamate]

Source: patent US20260265238A1, “COMPOUNDS AND PHARMACEUTICAL COMPOSITIONS THAT DEGRADE SWI/SNF-RELATED MATRIX-ASSOCIATED ACTIN-DEPENDENT REGULATOR OF CHROMATIN SUBFAMILY A” (Plexium, Inc., priority 2023, published 2026)
